Measured values: US20090247766A1, “Substituted Nitrogen Heterocycles and Synthesis and Uses Thereof” (University of Southern California, priority 2008, published 2009)
Values after ≈ are worked out from the molar mass of the structure shown. Values joined by “and” are separate entries in the source; they are usually repeats but may differ in a detail not shown here. Equal entries are not always repeated.

Tests used:
Format in all cases: cell-based
MDA-MB 435 = test: MTT cytotoxicity assay, MDA-MB 435
Procedure: For example, compound 1-[5-chloro-2-(4-methoxy-phenyl)-3-trifluoromethyl-indol-1-yl]-ethanone, prepared under Example 2 of the present application, has shown potential anticancer activity against several cancer cell lines.
(§1) IC50 was determined using an MTT assay.

HCT116 p53 +/+ = test: MTT cytotoxicity assay, HCT116 p53 +/+; conditions: replicate values
Procedure: as §1

Skov-3 = test: MTT cytotoxicity assay, Skov-3; conditions: replicate values
Procedure: as §1

HCT116 p53 −/− = test: MTT cytotoxicity assay, HCT116 p53 -/-; conditions: replicate values
Procedure: as §1

MCF7 = test: MTT cytotoxicity assay, MCF7; conditions: replicate values
Procedure: as §1

H29 = test: MTT cytotoxicity assay, H29; conditions: replicate values
Procedure: as §1

[1] = Homo sapiens, HCT-116, MTT assay

Compound: COc1ccc(-c2c(C(F)(F)F)c3cc(Cl)ccc3n2C(C)=O)cc1 [Example 2, 1-[5-chloro-2-(4-methoxy-phenyl)-3-trifluoromethyl-indol-1-yl]-ethanone]
- cytotoxicity against the MDA MB-435 cell line (MDA-MB 435; 10 micromolar (μM) concentration, MTT assay): 80.8%
- IC50 (MDA-MB 435; Homo sapiens, MDA-MB-435, MTT assay, replicate values): 11.1 µg/mL (≈ 30.2 µM)
- IC50 MDA-MB 435 (MDA-MB 435; MTT assay, replicate values): 8.5 µg/mL and 7.4 µg/mL and 9.6 µg/mL
- IC50 (HCT116 p53 +/+; [1]): 14.5 µg/mL (≈ 39.4 µM)
- IC50 HCT116 p53 +/+ (HCT116 p53 +/+; MTT assay): 15.4 µg/mL (≈ 41.9 µM)
- IC50 (Skov-3; Homo sapiens, SK-OV-3, MTT assay): 15.8 µg/mL (≈ 43 µM)
- IC50 Skov-3 (Skov-3; MTT assay): 17.2 µg/mL (≈ 46.8 µM)
- IC50 (HCT116 p53 −/−; [1]): 13.2 µg/mL (≈ 35.9 µM)
- IC50 HCT116 p53 −/− (HCT116 p53 −/−; MTT assay): 8.4 µg/mL and 9.4 µg/mL and 9.2 µg/mL
- IC50 (MCF7; Homo sapiens, MCF7, MTT assay): 18.8 µg/mL (≈ 51.1 µM)
- IC50 MCF7 (MCF7; MTT assay): 18 µg/mL (≈ 48.9 µM)
- IC50 (H29): 9.6 µg/mL (≈ 26.1 µM)
- IC50 H29 (H29): 9.8 µg/mL (≈ 26.6 µM)
